The numbers were not newly measured in patent publication US20070202162A1, “EXTENDED RELEASE PHARMACEUTICAL COMPOSITIONS” (priority 2006, published 2007), which cites them from elsewhere.

The conditions of this data set: in water and ethanol.

Structures can show the parent of a compound that is named as a salt.

In the case of `CC(C)NCC(O)COc1cccc2ccccc12` (stereo not shown) [Propranolol hydrochloride, 1-(Isopropylamino)-3-(1-naphthyloxy)-2-propanol], the solubility entry is “readily soluble in water and ethanol”.
